Test results published in patent US12594282B2, “Use of small molecule compounds in the treatment of diseases mediated by lung epithelial cell injury and/or vascular endothelial cell injury” (Guangzhou Cellprotek Pharmaceutical Co., Ltd., priority 2020, dated 2026).

Key:
[1] = test system: LPS-induced acute lung injury; assay: LPS-induced acute lung injury in rats (HE pathology, Smith score); type: in vivo, rat; conditions: for lung injury pathological score vs LPS model group: tail vein every 6 h x4, 24 h after LPS 6.4 mg/kg
Protocol: Animal grouping: 60 qualified rats with uniform body weight were selected and included in the experiment, and were randomly divided into 6 groups according to body weight, 10 rats/group. The animal grouping and the drug treatment dose of each group were as follows:
Drug administration: Test drugs were administered by tail vein at 0.3 mL/100 g body weight, hydrocortisone (25 mg/kg) was administered intraperitoneally at 0.5 mL/100 g body weight; the first administration for all the test agents were performed 0.5 h before LPS administration in the model. The test drug solvent and YC-6 were intravenously injected once every 6 h for a total of 4 injections, and the hydrocortisone (HC) group was intraperitoneally injected once every 12 h for a total of 2 injections.
After the rats were weighed and anesthetized by isoflurane, they were fixed in a supine position. The hair in the skin of the neck was removed, the skin of the neck was sterilized with 75% ethanol, and incised in the middle, after which the subcutaneous tissue was bluntly separated, and the upper trachea was exposed. 8 mg/mL LPS solution was injected into the trachea with a syringe, 0.2 mL/rat, and each rat was calculated as having body weight of […], and the dose was 6.4 mg/kg. Immediately after injection, the rats were erected, shaken, and rotated to distribute the LPS solution evenly in the lungs. The skin was sutured and disinfected with iodophor.
24 h after LPS injection, the animals were anesthetized by intraperitoneal injection of 20% […] solution at a volume of 6 mL/kg body weight. After the abdominal aorta was bled till the animal was dead, the thoracic cavity was exposed, and the lung tissue was collected. The left lung was fixed in 10% paraformaldehyde solution for 48 hours, after which the coronal plane of the left lung was cross-sectioned into two equal-width upper and lower parts, and then the lower half of the left lung was cross-sectioned into two equal-width parts according to the coronal plane. The sagittal plane of the upper half of the left lung and the coronal plane of the two lower half of the left lung were embedded in a paraffin block, sectioned and stained with hematoxylin-eosin (HE).
Tissue dehydration and paraffin embedding: The tissue was taken out of the fixative and successively immersed in 50% ethanol (30 min)-70% ethanol (overnight)-80% ethanol (30 min)-90% ethanol (30 min)-95% ethanol (30 min)-absolute ethanol (2 times, 30 min each time)-xylene (2 times, 5˜10 min each time, until the sample was completely transparent)-62° C. paraffin (3 times, 1 hour each time), followed by tissue embedding. Tissue paraffin sectioning: The thickness was 3 μm, the sections were dried on a microtome, and then placed in a 37° C. oven to dry overnight, and then used for HE staining. […]

NR4A3 = NR4A3 protein expression under OGD-R, RAOEC (Western blot, immunofluorescence); type: cell-based, rat; conditions: OGD 4 hours, restoration 24 hours, 1, 3, 10 μM given at restoration
Protocol: HUVEC cells were cultured in modified DMEM medium containing 10% fetal bovine serum. When the cells reached about 80% confluence, the cells were digested with 0.25% trypsin, and then pipetted evenly with modified DMEM containing 10% […]. The cell concentration was adjusted to 1×10^5 cells/mL, and the cells were seeded at 400 uL/well in a 24-well plate, and the experiment was carried out when the cells grew to about 70% confluence. RAOEC cells were cultured in high-glucose DMEM medium containing 10% fetal bovine serum, and the seeding conditions were the same as those of HUVEC. During the OGD-R injury treatment, the hypoxia workstation was set to have an oxygen concentration of 1% (1% O2, 5% CO2, 94% N2), a temperature of 37° C., and a humidity of 85%. A sugar-free DMEM medium was placed in the hypoxia workstation for pre-hypoxia for 3 hours. The medium in the culture plate was aspirated, and the plate was washed twice with preheated sugar-free DMEM medium, and 100 uL of sugar-free DMEM medium was added to each well. The culture plate was placed in the hypoxia workstation, and 300 uL of pre-hypoxic sugar-free DMEM medium was added to each well, and then the culture plate was placed in the hypoxia workstation for additional hypoxia for 4 hours. Restoration was then performed. The culture plate was taken out, and the sugar-free DMEM medium was replaced with 400 uL of normal medium containing 10% fetal bovine serum, and then the plate was placed in a 37° C. 5% CO2 cell incubator for culturing for 24 hours or a specified time period. For the cells in the normal group, it was only replaced with 400 uL of new normal medium containing 10% fetal bovine serum. […]
The cells were washed twice with pre-cooled PBS, then scraped off with a cell scraper and transferred to a 1.5 mL centrifuge tube, and centrifugation was performed at 4° C. and 1000 g for 5 minutes. […] Each protein sample was then quantified using the BCA protein quantification kit. After protein quantification, protein lysis buffer was used to adjust the protein concentration of each sample to be consistent with the protein sample with the lowest concentration, and then each protein sample was sufficiently mixed with 5× protein loading buffer at a ratio of 4:1. […]

[2] = 12, 40, 120 mg/kg/d, HE staining

SMILES: C[C@@]12CCCC1C1C[C@@H](O)[C@]3(O)C[C@@H](O)CC[C@]3(C)C1CC2 (stereo partly drawn) [YC-6, 5α-androst-3β,5,6β-triol]
- lung injury pathological score vs LPS model group ([1]; 12 mg/kg/d): significantly lower pathological scores
- lung injury pathological score vs LPS model group ([1]; 40 mg/kg/d): significantly lower pathological scores
- lung injury pathological score vs LPS model group ([1]; 120 mg/kg/d): significantly lower pathological scores
- alveolar damage vs LPS model group [1, 2]: reduced alveolar damage
- inflammatory cell infiltration in lung tissue vs LPS model group [1, 2]: reduced inflammatory cell infiltration
- protective effect (pathological score) compared with 50 mg/kg/d hydrocortisone ([1]; low-dose group (12 mg/kg/d), P<0.05): significantly better protective effect
- NR4A3 protein expression (NR4A3): dose-dependently increase the protein expression of NR4A3
